According to PubChem BioAssay (NCI):
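A five-concentration, 48-hour dose response in 96-well plates underlies each endpoint, interpolated linearly between surrounding concentrations. The concentration for full growth arrest is given as TGI.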

Assays:
Test in all cases: inhibition of tumour cell growth, NCI panel, 48 h
[1] = tested on: HCT-116 colon
[2] = tested on: MCF7 breast
[3] = tested on: DU-145 prostate
[4] = tested on: MOLT-4 leukemia
[5] = tested on: SK-MEL-5 melanoma
[6] = tested on: NCI-H226 lung
[7] = tested on: CCRF-CEM leukemia
[8] = tested on: SR leukemia
[9] = tested on: T-47D breast
[10] = tested on: M14 melanoma
[11] = tested on: A549 NSCLC
[12] = tested on: A498 renal
[13] = tested on: MDA-N
[14] = tested on: MDA-MB-231 breast
[15] = tested on: LOX IMVI melanoma
[16] = tested on: HOP-92 NSCLC
[17] = tested on: SK-MEL-28 melanoma
[18] = tested on: SN12C renal
[19] = tested on: HT29 colon
[20] = tested on: HCC-2998 colon
[21] = tested on: RPMI-8226 leukemia
[22] = tested on: NCI-H460 lung
[23] = tested on: COLO 205 colon
[24] = tested on: TK-10 renal
[25] = tested on: NCI/ADR-RES ovarian
[26] = tested on: SNB-75 CNS
[27] = tested on: OVCAR-5 ovarian
[28] = tested on: SK-OV-3 ovarian
[29] = tested on: OVCAR-4 ovarian
[30] = tested on: UACC-62 melanoma
[31] = tested on: KM12 colon
[32] = tested on: HS 578T breast
[33] = tested on: NCI-H23 lung
[34] = tested on: OVCAR-8 ovarian
[35] = tested on: SK-MEL-2 melanoma
[36] = tested on: HL-60(TB) leukemia
[37] = tested on: OVCAR-3 ovarian
[38] = tested on: ACHN renal
[39] = tested on: RXF 393 renal
[40] = tested on: SW-620 colon
[41] = tested on: SF-295 CNS
[42] = tested on: UACC-257 melanoma
[43] = tested on: K-562 leukemia
[44] = tested on: SF-268 CNS
[45] = tested on: HOP-62 NSCLC
[46] = tested on: PC-3 prostate
[47] = tested on: CAKI-1 renal
[48] = tested on: UO-31 renal
[49] = tested on: MDA-MB-435
[50] = tested on: 786-0 renal
[51] = tested on: U251 CNS
[52] = tested on: SF-539 CNS
[53] = tested on: SNB-19 CNS
[54] = tested on: IGROV1 ovarian
[55] = tested on: NCI-H522 lung
[56] = tested on: MALME-3M melanoma
[57] = tested on: EKVX NSCLC
[58] = tested on: HCT-15 colon
[59] = tested on: BT-549 breast

Measured: TGI

COc1ccccc1/C=C1\S/C(=N/Nc2nc(C)c(C(C)=O)s2)NC1=O
65 µM: [14]
39.8 µM: [6]
45.5 µM: [12]
63.2 µM: [36]
67 µM: [2]
70.1 µM: [32]
96.6 µM: [44]
61 µM: [26]
72.8 µM: [9]
90.4 µM: [48]
47.7 µM: [5]
46.2 µM: [23]
48 µM: [16]
89.4 µM: [21]
88.1 µM: [13]
56.1 µM: [37]
not listed: [54] | [55] | [56] | [57] | [58] | [59]
> 100 µM: all other assays above

CCOC(=O)/C(C(=S)NCc1ccccc1)=C(/N)N1CCCC1
not listed: [26] | [28] | [59]
> 100 µM: all other assays above

O=CC1C(Cl)=Nc2nc3ccccc3n2C1c1ccccc1 (stereo not drawn)
58.9 µM: [23]
44 µM: [29]
44.8 µM: [18]
37.7 µM: [19]
33.3 µM: [38]
38.1 µM: [6]
37.3 µM: [43]
37.2 µM: [44]
34 µM: [52]
43.2 µM: [37]
56.6 µM: [33]
52.5 µM: [56]
65.6 µM: [25]
29.5 µM: [50]
40.2 µM: [40]
27.3 µM: [55] | [35]
70.5 µM: [1]
79.6 µM: [27]
44.2 µM: [45]
58.3 µM: [36]
52.9 µM: [34]
63.1 µM: [7]
> 100 µM: [22] | [41] | [49] | [53]
25.4 µM: [32]
25.5 µM: [16]
43.8 µM: [54] | [21]
50 µM: [30]
30.9 µM: [58] | [39]
38.6 µM: [14]
30.3 µM: [17]
40.7 µM: [46]
58.2 µM: [42]
34.8 µM: [20]
76.6 µM: [11]
51.4 µM: [24] | [31]
41.2 µM: [9]
29 µM: [15] | [59]
14.4 µM: [8]
31.4 µM: [3]
64.6 µM: [10] | [57]
33.7 µM: [26] | [51]
46.6 µM: [47]
42.7 µM: [2]
45.5 µM: [5]
23 µM: [12]
48.4 µM: [48]

CC(O)(C#N)CC(O)(C(F)(F)Cl)C(F)(F)Cl (stereo not drawn)
not listed: [2] | [4] | [7] | [8] | [9] | [15] | [20] | [21] | [22] | [28] | [30] | [32] | [35] | [36] | [42] | [43] | [45] | [50] | [55] | [56] | [59]
> 10 µM: all other assays above
